Measured values taken from patent publication US20160015725A1, “METHODS OF CONTROLLING TUMOR BIOENERGETICS NETWORKS” (THE WISTAR INSTITUTE OF ANATOMY AND BIOLOGY, priority 2012, published 2016).

How the values were obtained:
Assay type in all cases: cell-based, human
[1] = tested on: multiple tumor cell types; assay: ATP production in tumor cells (luciferin-luciferase)
Method: Intracellular ATP concentrations were measured by the luciferin—luciferase method using an ATP measuring kit (Biochain). The ATP concentration in each extract was measured with a microplate luminometer (Beckman Coulter) against standard ATP solutions used as reference. In some experiments, PC3 or LN229 cells were preincubated with sodium pyruvate for 7 h in the presence of vehicle or Gamitrinib before determination of ATP production.

[2] = tested on: AMP-activated kinase (AMPK); assay: AMPK phosphorylation in tumor cells, Western blotting; conditions: tumor cells
WT BRAF melanoma cells = assay: AMPK and autophagy signaling in WT BRAF melanoma cells; conditions: WT BRAF melanoma cells
Description: (§1) Human glioblastoma LN229, prostate adenocarcinoma PC3 or LNCaP cells, or normal NIH3T3 fibroblasts were obtained from the American Tissue Culture Collection (ATCC, Manassas, Va.), and maintained in culture according to the supplier's specifications. The following wild type (WT) BRAF N-Ras mutant melanoma cells WM852 and WM1366, and melanoma cells carrying a V600E activating mutation in the BRAF oncogene, 451Lu, Me11617 and WM983B were used in this study. WT or CypD knockout Mouse Embryonic Fibroblasts (MEFs, CypD−/−) were characterized earlier 40. In some experiments, CypD−/− MEFs were stably transfected with control plasmid, WT CypD or peptidyl prolyl isomerase (PPIase)-deficient H168Q CypD mutant cDNA, and analyzed for differential recruitment of HK-II to mitochondrial or cytosolic fractions.
(§2) For Western blotting, protein lysates were prepared from the different cell types in RIPA Buffer (150 mM NaCl, 1.0% Triton X-100, 0.5% sodium deoxycholate, 0.1% SDS, 50 mM Tris, pH 8.0) containing EDTA-free Protease Inhibitor Cocktail (Roche) and Phosphatase Inhibitor Cocktail 2 and 3 (Sigma Aldrich). Equal amounts of protein lysates were separated by SDS gel electrophoresis, transferred to PVDF membranes and incubated with primary antibodies of various specificities. Protein bands were detected by chemiluminescence.
(§3) Samples were imaged using a Leica TCS SP2 confocal microscope. For determination of autophagy, cells under the various conditions tested were harvested after 12 h, and analyzed with an antibody to […] (LC3) by Western blotting.

LN229 cells = assay: Cell viability by MTT
Method: Various cell types were seeded in triplicate onto 96-well plates at 4×10^3 cells/well, treated with vehicle, Gamitrinib or 17-AAG (0-20 μM) for 12 h, and analyzed for changes in metabolic activity by an MTT assay. For determination of apoptosis, LN229 cells ([…]) were labeled for annexin V and propidium iodide (PI) (BD Biosciences), and analyzed by multiparametric flow cytometry (BD).

[3] = tested on: V600E mutant BRAF melanoma cells; assay: AMPK and autophagy signaling in mutant BRAF melanoma cells
Description: as §1, §2, §3

hexokinase = assay: Hexokinase activity in mitochondrial fractions of treated cells; conditions: LN229 mitochondrial fractions, 5 h
Method: HK activity in LN229 cells was measured as the total glucosephosphorylating activity using a standard G6PDH-coupled assay kit (BioVision). Mitochondria isolated from Gamitrinib- or 17-AAG-treated LN229 cells, or cultures transfected with various siRNAs were homogenized in cold PBS, followed by centrifugation at 1000 g for 10 min at 4° C. HK activity was determined by analysis of G6P-dependent conversion of NADP to NADPH in the presence of excess […] in the presence of 2 mM glucose, and quantification of absorbance at 450 nm. All assays were performed at 25° C. under conditions of linear HK-limited NADPH formation.

mTORC1 = mTORC1 signaling in tumor cells, Western blotting
PC3 cells = assay: ER stress luciferase-promoter reporter assay; conditions: PC3, 20 h
Method: In another series of experiments, PC3 cells were transfected with control or Grp78-directed siRNA, and analyzed for cell viability after 24 h by an MTT assay. For promoter analysis, PC3 cells were plated in triplicate onto 48-well plates at 1.4×10^4 cells/well, and cotransfected with Firefly Luciferase-reporters for IRE1, ATF6, PERK or CHOP and a constitutive reporter (pTK-Renilla Luc) in a 10:1 ratio using X-tremeGENE reagent (Roche). After 24 h, cells were treated with vehicle, Gamitrinib, tunicamycin or 2-DG and analyzed after 20 h for Firefly and Renilla luciferase activity using a Dual Luciferase Reporter Assay System (Promega). Transfection of plasmid DNAs was carried out with lipofectamine 2000 (Invitrogen) according to published protocols. A PPIase-defective CypD H168Q mutant cDNA was generated by Quick-Change site-directed mutagenesis (Stratagene) using primers 5′-[…]-3′ (forward) and 5′-[…]-3′ (reverse) (mutated sequences are bolded). The inserted mutation (bolded) was confirmed by DNA sequencing, and cloned in a pcDNA3.0 expression vector (Invitrogen) for reconstitution experiments in CypD−/− MEFs.

tumor cells [4] = assay: ER UPR markers (Western blotting, Xbp1 splicing, RT-qPCR); conditions: for effect on Gamitrinib-induced AMPK phosphorylation and ER stress/UPR markers: agent added to Gamitrinib; for ER UPR markers (CHOP, C/EBPβ, Grp78): tumor cells, Western blotting
tumor cells [5] = assay: Autophagy (LC3 conversion, LC3-CFP puncta)
Method: LN229 cells were transfected with various siRNAs, and mixed after 24 h with plasmid encoding cyan fluorescent protein (CFP) fused to human […] (LC3) cDNA in the presence of Lipofectamine 2000 Transfection Reagent (Invitrogen). After 48 h, transfected cells were fixed in 4% paraformaldehyde for 15 min at 37° C., washed, and examined by fluorescence microscopy (Nikon, E600). The numbers of CFP-LC3 punctate dots per cell was determined from three independent experiments. A minimum of 50 CFP-LC3-positive cells assessed from at least ten random fields per sample were counted in triplicate per each condition.
as §3

Compound: C=CCNC1=C2C[C@@H](C)C[C@H](OC)[C@H](O)[C@@H](C)/C=C(\C)[C@H](OC(N)=O)[C@@H](OC)/C=C\C=C(/C)C(=O)NC(=CC1=O)C2=O [17-AAG, 17-allylamino demethoxygeldanamycin, reference compound]
- ATP production ([1]; tumor cell types, non-cytotoxic concentrations, 5 h): had no effect on ATP production
- AMPK phosphorylation [2]: not
- AMPK phosphorylation (WT BRAF melanoma cells): had no effect on AMPK activation
- tumor cell viability, combination with 3-MA (LN229 cells; 17-AAG plus 3-MA vs each treatment alone): did not decrease tumor cell viability compared to each treatment alone
- AMPK activation ([3]; BRAF mutant melanoma cells): had no effect on AMPK activation
- hexokinase activity (hexokinase): had no effect
- phosphorylation of mTOR, 4EBP1 and p70S6 (mTORC1) (mTORC1): had no effect

Compound: tunicamycin
- minimal CHOP promoter activity (PC3 cells): transcriptionally induced
- transcriptional activation of response elements of IRE-1, ATF-6 and PERK (PC3 cells): comparably induced transcriptional activation
- IRE-1 and CHOP expression (tumor cells [4]; control ER stressor): comparable induction of IRE-1 and CHOP expression

Compound: Cn1cnc(N)c2ncnc1-2 [3-MA, 3-methyladenine]
- tumor cell killing mediated by sub-optimal concentrations of Gamitrinib (LN229 cells; agent added to Gamitrinib): enhanced tumor cell killing mediated by sub-optimal concentrations of Gamitrinib

Compound: N#CC(=C(/N)Sc1ccccc1N)/C(C#N)=C(\N)Sc1ccccc1N [U0126, reference compound]
- AMPK phosphorylation after Gamitrinib treatment ([3]; mutant BRAF melanoma cells, agent added to Gamitrinib): partially restored AMPK phosphorylation

Compound: CC(=O)N[C@@H](CS)C(=O)O [NAC, N-acetyl-L-cysteine, reference compound]
- effect on Gamitrinib-induced AMPK phosphorylation and ER stress/UPR markers (tumor cells [4]): did not affect

Compound: CC(=O)C(=O)[O-].[Na+] [sodium pyruvate, reference compound]
- rescue of ATP production in Gamitrinib-treated tumor cells ([1]; exogenous addition, PC3 or LN229, 7 h): failed to rescue ATP production
- effect on Gamitrinib-induced AMPK phosphorylation and ER stress/UPR markers (tumor cells [4]): did not affect

Compound: O=CC[C@@H](O)[C@H](O)[C@H](O)CO [2-DG, 2-deoxy-D-glucose]
- AMPK phosphorylation [2]: AMPK activation
- minimal CHOP promoter activity (PC3 cells): transcriptionally induced
- transcriptional activation of response elements of IRE-1, ATF-6 and PERK (PC3 cells): comparably induced transcriptional activation
- phosphorylation of mTOR, 4EBP1 and p70S6 (mTORC1) (mTORC1): suppression of mTORC1 4EPB1 and p70S6 phosphorylation
- ER UPR markers (CHOP, C/EBPβ, Grp78) (tumor cells [4]): concentration (FIG. 14b)- and time (FIG. 14c)-dependent upregulation of ER UPR

Compound: N#CC(C#N)=NNc1cccc(Cl)c1 [CCCP, carbonyl cyanide 3-chlorophenylhydrazone, reference compound]
- autophagy (LC3-II conversion) (tumor cells [5]): stimulation of LC3-II conversion
- AMPK phosphorylation [2]: time-dependent phosphorylation of AMPK
- phosphorylation of mTOR, 4EBP1 and p70S6 (mTORC1) (mTORC1): inhibition of 4EBP1 phosphorylation
- ER UPR markers (CHOP, C/EBPβ, Grp78) (tumor cells [4]): upregulation of CHOP, C/EBPβ, and Grp78
